One data set concerns the target T1, PPAR alpha-LBD (Homo sapiens, UniProt Q07869).
T1 sequence (Q07869 239-466 limits assumed): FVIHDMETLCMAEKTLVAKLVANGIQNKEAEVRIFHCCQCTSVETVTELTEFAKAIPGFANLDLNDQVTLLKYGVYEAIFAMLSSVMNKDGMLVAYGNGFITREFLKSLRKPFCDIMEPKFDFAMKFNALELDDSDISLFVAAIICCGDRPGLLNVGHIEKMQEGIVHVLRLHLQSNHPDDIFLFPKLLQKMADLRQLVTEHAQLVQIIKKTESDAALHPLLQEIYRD
Kind of data set: PPAR assay, PPARα. To be noted: sample final concentration 100 μM; positive control fenofibrate; FIGS. 5 and 6.

The melting point is the temperature of the solid-liquid transition.

A value given as a limit tells only on which side of the number the result lay.

Regarding `O=C(O)[C@@H]1CSC(c2ccc(O)cc2)N1` (mixture of isomers) [Compound 1, (2R/S,4R)-2-(4-hydroxyphenyl)thiazolidine-4-carboxylic acid], the melting point lay in the range of 161.8 to 164.4 °C.

Molecule `CCOc1cc(C2N[C@H](C(=O)O)CS2)ccc1O` (mixture of isomers) [Compound 5, (2R/S,4R)-2-(3-ethoxy-4-hydroxyphenyl)thiazolidine-4-carboxylic acid] displayed a melting point of 174.3 to 175.9 °C.

In turn, `COc1ccc(C2N[C@H](C(=O)O)CS2)cc1OC` (mixture of isomers) [Compound 8, (2R/S,4R)-2-(3,4-dimethoxyphenyl)thiazolidine-4-carboxylic acid] gave a melting point of 173.6 to 175.4 °C.

The molecule `COc1cc(C2N[C@H](C(=O)O)CS2)cc(OC)c1OC` (mixture of isomers) [Compound 11, (2R/S,4R)-2-(3,4,5-trimethoxyphenyl)thiazolidine-4-carboxylic acid] had a melting point of 197 to 199.7 °C.

Consider `COc1cc(C2N[C@H](C(=O)O)CS2)cc(OC)c1O` (mixture of isomers) [Compound 12, (2R/S,4R)-2-(4-hydroxy-3,5-dimethoxyphenyl)thiazolidine-4-carboxylic acid], for which the melting point was in the range of 139.6 to 141 °C.

Take `Oc1cc(O)cc(-c2nc3ccccc3s2)c1` [Compound 21, 5-(benzo[d]thiazol-2-yl)benzene-1,3-diol]: the melting point fell in the range of 274.5 to 276.5 °C.

The molecule `COc1ccc(-c2nc3ccccc3s2)c(OC)c1` [Compound 22, 2-(2,4-dimethoxyphenyl)benzo[d]thiazole] displayed a melting point of 137.4 to 138.9 °C.

`COc1ccc(-c2nc3cc(C(F)(F)F)ccc3s2)cc1O` [Compound 33, 2-methoxy-5-(5-(trifluoromethyl)benzo[d]thiazol-2-yl)phenol] gave a melting point of 142.1 to 144.5 °C.

`COc1ccc(-c2nc3cc(C(F)(F)F)ccc3s2)cc1OC` [Compound 35, 2-(3,4-dimethoxyphenyl)-5-(trifluoromethyl)benzo[d]thiazole]: the melting point fell in the range of 120.4 to 121.6 °C.

In turn, `Oc1cc(O)cc(-c2nc3cc(C(F)(F)F)ccc3s2)c1` [Compound 36, 5-(5-(trifluoromethyl)benzo[d]thiazol-2-yl)benzene-1,3-diol] came in with a melting point of 256.7 to 260.6 °C.

`COc1ccc(-c2nc3cc(C(F)(F)F)ccc3s2)c(OC)c1` [Compound 37, 2-(2,4-dimethoxyphenyl)-5-(trifluoromethyl)benzo[d]thiazole] gave a melting point of 140.4 to 141.6 °C.

`Oc1ccccc1-c1nc2cc(C(F)(F)F)ccc2s1` [Compound 38, 2-(5-(trifluoromethyl)benzo[d]thiazol-2-yl)phenol] registered a melting point of 175 to 176.5 °C.

In the case of `COc1cc(-c2nc3cc(C(F)(F)F)ccc3s2)cc(OC)c1OC` [Compound 39, 5-(trifluoromethyl)-2-(3,4,5-trimethoxyphenyl)benzo[d]thiazole], the melting point is 132.5 to 134 °C.

`COc1cc(-c2nc3ccccc3[nH]2)cc(OC)c1OC` [Compound 54, 2-(3,4,5-trimethoxyphenyl)-1H-benzo[d]imidazole] came in with a melting point of 257 to 257.7 °C.

On to `O=C(O)c1ccc2[nH]c(-c3ccc(O)cc3)nc2c1` [Compound 57, 2-(4-hydroxyphenyl)-1H-benzo[d]imidazole-5-carboxylic acid], for which the melting point was above 300 °C.

As for `COc1cc(-c2nc3cc(C(=O)O)ccc3[nH]2)ccc1O` [Compound 60, 2-(4-hydroxy-3-methoxyphenyl)-1H-benzo[d]imidazole-5-carboxylic acid], the melting point was above 300 °C.

`c1ccc(COc2ccc(-c3nc4ccccc4[nH]3)cc2)cc1` [Compound 114, 2-(4-(benzyloxy)phenyl)-1H-benzo[d]imidazole]: the “PPARα activation (competitive activation rate), compared with fenofibrate” value at PPAR alpha-LBD is “very excellent PPARα activation agent compared to fenofibrate”.

These data come from US8889881B2, “Compound having skin-whitening, anti-oxidizing and PPAR activities and medical use therefor” (Pusan National University Industry —University Cooperation …, priority 2011, dated 2014).
